ChEMBL document CHEMBL5143516, “Design, synthesis, and biological evaluation of N-(3-cyano-1H-indol-5/6-yl)-6-oxo-1,6-dihydropyrimidine-4-carboxamides and 5-(6-oxo-1,6-dihydropyrimidin-2-yl)-1H-indole-3-carbonitriles as novel xanthine oxidase inhibitors” (Eur J Med Chem, 2022)
Calls of active or inactive are those of the source. The calls are words filed in the database; no cut-off is given here.

Assays:
Rattus norvegicus = assay: Anti-hyperuricemic activity against potassium oxonate-induced acute hyperuricemia Sprague-Dawley rat model assessed as reduction in serum uric acid level at 10 mg/kg, po pretreated with potassium oxonate for 1 hr followed by compound treatment and measured after 8 hrs; format: functional, organism-based
[1] = target: Xanthine dehydrogenase/oxidase (Homo sapiens, UniProt P47989); assay: Inhibition of xanthine oxidase (unknown origin) using xanthine as substrate incubated for 15 mins followed by substrate addition by spectrophotometric analysis
Chain of Xanthine dehydrogenase/oxidase (P47989 whole entry): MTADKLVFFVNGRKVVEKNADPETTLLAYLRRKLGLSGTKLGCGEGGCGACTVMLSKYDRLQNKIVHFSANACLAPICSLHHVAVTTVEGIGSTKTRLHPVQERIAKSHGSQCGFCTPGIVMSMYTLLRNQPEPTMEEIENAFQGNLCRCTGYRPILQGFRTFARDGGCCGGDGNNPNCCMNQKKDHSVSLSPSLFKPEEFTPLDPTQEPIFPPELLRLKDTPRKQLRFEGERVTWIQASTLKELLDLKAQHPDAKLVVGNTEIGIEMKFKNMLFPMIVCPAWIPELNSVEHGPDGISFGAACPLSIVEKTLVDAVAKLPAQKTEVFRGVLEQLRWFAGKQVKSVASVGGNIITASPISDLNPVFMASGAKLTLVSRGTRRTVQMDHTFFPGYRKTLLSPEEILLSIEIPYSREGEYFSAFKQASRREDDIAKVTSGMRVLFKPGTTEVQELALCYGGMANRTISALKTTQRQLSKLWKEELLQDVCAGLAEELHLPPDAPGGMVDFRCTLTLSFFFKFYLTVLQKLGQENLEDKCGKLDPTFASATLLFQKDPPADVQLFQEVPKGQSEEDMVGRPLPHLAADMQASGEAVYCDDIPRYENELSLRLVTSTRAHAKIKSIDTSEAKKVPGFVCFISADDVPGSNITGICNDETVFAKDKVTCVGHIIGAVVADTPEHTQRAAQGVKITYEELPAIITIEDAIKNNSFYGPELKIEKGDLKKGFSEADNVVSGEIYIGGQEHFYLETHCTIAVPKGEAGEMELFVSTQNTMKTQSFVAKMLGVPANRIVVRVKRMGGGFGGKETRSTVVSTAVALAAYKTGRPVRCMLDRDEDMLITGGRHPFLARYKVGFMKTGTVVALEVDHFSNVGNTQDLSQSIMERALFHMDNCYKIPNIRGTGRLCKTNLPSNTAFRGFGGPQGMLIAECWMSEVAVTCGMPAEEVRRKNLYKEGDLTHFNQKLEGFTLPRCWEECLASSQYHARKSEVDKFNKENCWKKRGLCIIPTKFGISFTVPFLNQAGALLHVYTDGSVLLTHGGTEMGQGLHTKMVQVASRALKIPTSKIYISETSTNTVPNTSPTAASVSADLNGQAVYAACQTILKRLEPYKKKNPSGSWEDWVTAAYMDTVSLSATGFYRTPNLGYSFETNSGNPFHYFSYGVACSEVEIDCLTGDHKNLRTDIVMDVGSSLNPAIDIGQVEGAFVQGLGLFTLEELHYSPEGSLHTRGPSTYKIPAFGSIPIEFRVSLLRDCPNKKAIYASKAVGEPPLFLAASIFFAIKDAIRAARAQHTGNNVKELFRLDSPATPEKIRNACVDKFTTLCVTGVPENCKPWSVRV

| SMILES | IC50 [1] [µM] | Activity (Rattus norvegicus) |
| --- | --- | --- |
| Oc1ncnc2[nH]ncc12 |  | Active |
| CC(C)n1cc(C#N)c2cc(-c3nccc(O)n3)ccc21 |  | Active |
| N#Cc1cn(C2CCCC2)c2cc(NC(=O)c3cc(=O)[nH]cn3)ccc12 | > 10 |  |
| CC(C)n1cc(C#N)c2ccc(NC(=O)c3cc(=O)[nH]cn3)cc21 | > 10 |  |
| CC(C)=CCn1cc(C#N)c2ccc(NC(=O)c3cc(=O)[nH]cn3)cc21 | > 10 |  |
| N#Cc1cn(C2CCCC2)c2ccc(NC(=O)c3cc(=O)[nH]cn3)cc12 |  | Active |

Now from value to compound, other results behind:

| IC50 [1] [µM] | SMILES | Activity (Rattus norvegicus) |
| --- | --- | --- |
| > 10 | CC(C)(C)c1ccc(Cn2cc(C#N)c3cc(NC(=O)c4cc(=O)[nH]cn4)ccc32)cc1 |  |
| > 10 | COc1ccnc(-c2ccc3c(c2)c(C#N)cn3C(C)C)n1 |  |
| 0.023 | Cc1nc(-c2ccc(OCC(C)C)c(C#N)c2)sc1C(=O)O [FEBUXOSTAT] | Active |
| > 10 | CC(C)Cn1cc(C#N)c2ccc(NC(=O)c3cc(=O)[nH]cn3)cc21 |  |
| > 10 | N#Cc1cn(CC2CC2)c2cc(NC(=O)c3cc(=O)[nH]cn3)ccc12 |  |
| > 10 | Cc1nc(C(=O)Nc2ccc3c(C#N)cn(C4CCCC4)c3c2)cc(=O)[nH]1 |  |
| > 10 | C=CCn1cc(C#N)c2ccc(NC(=O)c3cc(=O)[nH]cn3)cc21 |  |
